According to PMC8480782, “Efficient Dimerization Disruption of Leishmania infantum Trypanothione Reductase by Triazole-phenyl-thiazoles” (Journal of Medicinal Chemistry, 2021):
Values joined by “and” are separate entries in the source; they are usually repeats but may differ in a detail not shown here. Equal values may be shown once. “Also recorded” adds a separate entry of the source. Read-outs that look alike come from different tables or passages of the source.

Assays:
[1] = tested on: L. infantum intracellular amastigotes; experiment: Leishmanicidal activity in amastigote-infected THP-1 monocyte-derived macrophages; format: cell-based, Leishmania infantum
Protocol: THP-1 monocytes were seeded in a 48-well plate at a concentration of 5 × 10^5 cells/mL (250 μL/well) in RPMI complete medium supplemented with phorbol 12-myristate 13-acetate (PMA) (100 ng/mL). Differentiation of THP-1 monocytes to macrophages was allowed for 24 h at 37 °C and 5% CO2. THP-1-derived macrophages were infected with GFP-expressing axenic amastigotes at 5 × 10^6 parasites/mL in RPMI complete medium for 24 h (250 μL/well). Extracellular amastigotes were washed twice with PBS. The remaining extracellular parasites were challenged for 24 h with THP-1 medium supplemented with 10% horse serum (Gibco) instead of FCS. Cells were washed twice with PBS, and treatments were performed in 250 μL of fresh RPMI medium supplemented with 10% horse serum for 72 h at 37 °C and 5% CO2. Afterward, treatments were removed by two PBS washes. Lysis of infected cells was performed with 120 μL of SDS 0.005% (w/v) in PBS. After a 30 min incubation at 37 °C, lysis was stopped by adding RPMI complete medium with PI at 20 μg/mL (120 μL/well). The lysates were transferred to a 96-well plate (200 μL/well), and the GFP^+ amastigotes extracted from the infected cells were acquired by a Beckman Coulter FC500 flow cytometer. Each sample (100 μL) was acquired for 20 s.
The relative number of GFP^+ intracellular amastigotes per cell in each sample was estimated after the division of the total number of GFP+ amastigotes by the LDH activity value of the sample. Results were normalized to the vehicle-treated controls. EC50 values of intracellular amastigotes were calculated using a nonlinear regression model with GraFit 6 software (Erithacus, Horley, Surrey, U.K.). All of the assays were conducted in at least three independent experiments.

LiTryR = target: T1, LiTryR (Leishmania infantum, UniProt A4HSF7); experiment: Time-dependent inhibition kinetics of LiTryR (modified DTNB-coupled assay); format: biochemical; settings: for α* (overall two-step process): fit to eq 4; for mechanism of LiTryR inhibition: reaction progress curves / kinetic analysis; for α (initial EI complex): fit to eq 3
T1 construct: HIS (N); made in house; host or cells: E. coli BL21 (DE3) Rossetta
T1 sequence (A4HSF7 1-491): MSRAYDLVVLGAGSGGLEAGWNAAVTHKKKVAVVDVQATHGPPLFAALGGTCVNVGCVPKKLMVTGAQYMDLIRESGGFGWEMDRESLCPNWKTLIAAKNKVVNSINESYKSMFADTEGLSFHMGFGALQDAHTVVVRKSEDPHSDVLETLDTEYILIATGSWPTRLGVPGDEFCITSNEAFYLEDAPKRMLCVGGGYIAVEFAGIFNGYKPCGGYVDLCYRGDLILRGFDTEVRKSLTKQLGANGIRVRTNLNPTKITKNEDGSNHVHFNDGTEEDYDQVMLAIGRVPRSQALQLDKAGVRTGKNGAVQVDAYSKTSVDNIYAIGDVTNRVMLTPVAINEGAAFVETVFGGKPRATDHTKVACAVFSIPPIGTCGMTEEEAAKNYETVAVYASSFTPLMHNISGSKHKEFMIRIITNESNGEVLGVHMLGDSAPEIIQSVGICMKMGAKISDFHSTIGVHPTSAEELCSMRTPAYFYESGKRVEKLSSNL
Protocol: The inhibitory constants Ki and Ki* for 19a were calculated following a slightly modified version of the standard DTNB-coupled assay.[52] TS2 was serially diluted (sixfold dilution from 1666 to 52 μM) in a buffer containing 40 mM HEPES (pH 7.5) and 1 mM EDTA. The different TS2 solutions were dispensed (15 μL) in a 96-well microplate. 19a was serially diluted in DMSO (sixfold dilution from 1875 to 445 μM). […] These mixtures (180 μL) were subsequently added to the appropriate wells previously filled with different TS2 solutions. The assay was initiated by addition of 55 μL of buffer containing 40 mM HEPES (pH 7.5), 1 mM EDTA, 272.73 μM NADP^+, 0.01% glycerol, and 3.5 nM recombinant LiTryR using an automated dispensing system (PerkinElmer, Waltham, MA). The order of addition was essential to avoid enzyme preincubation with the inhibitor or the substrates. […] TryR oxidoreductase activity was monitored at 26 °C by an increase in absorbance at 412 nm in an EnSpire Multimode Plate Reader (PerkinElmer, Waltham, MA). Coupling an automated dispenser module to the spectrophotometer enabled real-time detection of the enzymatic reaction, which was crucial for high-quality nonlinear fits of the experimental data and, especially, to estimate the initial velocity of the progress curves in the presence of 19a. To guarantee linearity of the enzyme reaction in the absence of an inhibitor, the analysis was performed with data obtained during the first 20 000 s to avoid TS2 depletion. […] All of the assays were conducted in three independent experiments.
kobs values were estimated for every 19a concentration at all TS2 concentrations by fitting the values of the TNB concentration produced during each enzymatic reaction to eq 1.[42b],[53] [drawing 2] 1 where vi and vs are the initial and the steady-state velocities, respectively, kobs is the apparent first-order rate constant for the conversion of vi into the steady-state velocity (vs), and d is a parameter that indicates the displacement of the curve on the vertical ordinate and takes into account any nonzero value of the measured signal at time zero caused by some of the reagents. The apparent inhibition constants (Ki^app and Ki*^app) for each TS2 concentration were determined by fitting the kobs values obtained at different 19a concentrations to eq 2 [drawing 3] 2 where Ki^app is the apparent value of the Ki for the initial encounter complex (EI) and Ki*^app is the apparent value of the overall inhibition constant Ki* to form a higher-affinity complex (E*I). k6 is the first-order rate constant that defines the reverse isomerization step that returns E*I to EI.[42a],[53]
The Ki value for the formation of the EI complex was determined by fitting the Ki^app values obtained at different TS2 concentrations to eq 3. In addition, this graph was used to assess the inhibition modality of 19a during the first equilibrium of its two-step binding mechanism. […] In addition, this graph was used to assess the overall inhibition modality of 19a during its two-step binding mechanism. As explained above, the value obtained for α defines the mode of inhibition.[42a] [drawing 5] 4
Figure S1. […]
Lineweaver–Burk plots of reciprocal initial velocities ( vi) versus reciprocals of four TS2

[2] = tested on: L. infantum promastigotes; experiment: Leishmanicidal activity on promastigotes (PI exclusion, flow cytometry); format: cell-based, Leishmania infantum; settings: for SIp (ratio of EC50 against human cells to EC50 against promastigotes): HepG2 / promastigotes; for EC50: Leishmania infantum
Procedure, shortened: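 Log-phase L. infantum promastigotes (MCAN/ES/89/IPZ229/1/89) at 2 × 10^6 parasites/mL in RPMI-1640 with 10% FCS, pH 7.2, were drug-treated for 24 h at 26 °C. Viability was scored by flow cytometric propidium iodide exclusion, and EC50 was derived by nonlinear regression.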

[3] = Leishmania infantum, THP-1, 72 h, read-out: EC50 intracellular amastigotes, amastigote-infected THP-1 macrophages, 72 h
[4] = fit of Ki*^app to eq 4, read-out: Ki* (overall two-step process)
[5] = two-step mechanism, fit of Ki^app to eq 3, read-out: Ki (initial EI complex)
[6] = 24 h at 26 °C, read-out: EC50 promastigotes
[7] = promastigotes or amastigotes (either form), read-out: EC50 against Leishmania promastigotes or amastigotes
[8] = Leishmania infantum, THP-1, 72 h, amastigote-infected THP-1 macrophages, 72 h, read-out: EC50 intracellular amastigotes

NCCCCc1cn(-c2ccc(-c3nc(CCc4ccc5ccccc5c4)cs3)c(OCCN3CCNC3=O)c2)nn1.O=C(O)C(F)(F)F [12b, 1-(2-(5-(4-(4-Ammoniumbutyl)-1H-1,2,3-triazol-1-yl)-2-(4-(2-(naphthalen-2-yl)ethyl)thiazol-2-yl)phenoxy)ethyl)imidazolidin-2-one 2,2,2-Trifluoroacetate]
EC50 [1, 3]: > 75 µM | Ki (LiTryR; [4]): 2.6 ± 0.6 µM | α* (overall two-step process) (LiTryR): 1.3 ± 0.6 | mechanism of LiTryR inhibition (LiTryR): slow-binding inhibitors; also recorded: two-step process of enzyme isomerization | Ki (LiTryR; [5]): 10 ± 2.7 µM | α (initial EI complex) (LiTryR; two-step mechanism): 2.0 ± 1.3 | SIp (ratio of EC50 against human cells to EC50 against promastigotes) [2]: 4.0 | EC50 [2, 6]: 8.4 ± 0.3 µM | EC50 [2, 7]: < 10 µM

NCCCCc1cn(-c2ccc(-c3nc(CCc4ccc(-c5ccccc5)cc4)cs3)c(OCCN3CCNC3=O)c2)nn1.O=C(O)C(F)(F)F [12c, 1-(2-(2-(4-(2-([1,1′-Biphenyl]-4-yl)ethyl)thiazol-2-yl)-5-(4-(4-ammoniumbutyl)-1H-1,2,3-triazol-1-yl)phenoxy)ethyl)imidazolidin-2-one 2,2,2-Trifluoroacetate]
EC50 [1, 3]: 46.5 ± 1.5 µM | mechanism of LiTryR inhibition (LiTryR): slow-binding inhibitors | SIp (ratio of EC50 against human cells to EC50 against promastigotes) [2]: 8.8 | EC50 [2, 6]: 4.9 ± 0.4 µM | EC50 [2, 7]: < 10 µM

NCCCc1cn(-c2ccc(-c3nc(CCc4ccc(-c5ccccc5)cc4)cs3)c(OCCN3CCNC3=O)c2)nn1.O=C(O)C(F)(F)F [12i]
EC50 [1, 8]: 54.5 µM | EC50 ([1]; amastigote-infected THP-1 macrophages, 72 h, read-out: EC50 intracellular amastigotes): 54.4 ± 15.5 µM | SIp (ratio of EC50 against human cells to EC50 against promastigotes) [2]: 10.4 | EC50 [2, 6]: 5.8 ± 0.7 µM

NCCCCc1cn(-c2ccc(-c3nc(-c4ccccc4)cs3)c(OCCN3CCNC3=O)c2)nn1.O=C(O)C(F)(F)F [12n]
EC50 [2, 6]: 5.4 ± 0.08 µM | EC50 [2, 7]: < 10 µM

NCCCCc1cn(-c2ccc(-c3nc(CCc4ccc5c(c4)CCCN5)cs3)c(OCCN3CCNC3=O)c2)nn1.O=C(O)C(F)(F)F.O=C(O)C(F)(F)F [12q]
EC50 [1, 8]: > 75 µM | mechanism of LiTryR inhibition (LiTryR): single-step binding mechanism | α, reversible single-step mechanism of time-dependent inhibition (LiTryR; single-step mechanism (Scheme S4)): 0.3 ± 0.2 | Ki (LiTryR; single-step mechanism (Scheme S4), read-out: Ki, reversible single-step mechanism of time-dependent inhibition): 13.6 ± 5.1 µM

NCCCCc1cn(-c2ccc(-c3nc(CCc4ccc5c(c4)CCO5)cs3)c(OCCN3CCNC3=O)c2)nn1.O=C(O)C(F)(F)F [12r]
mechanism of LiTryR inhibition (LiTryR): slow-binding inhibitors | SIp (ratio of EC50 against human cells to EC50 against promastigotes) [2]: 1.2 | EC50 [2, 6]: 23.8 ± 0.5 µM

NCCCCc1cn(-c2ccc(-c3nc(CCc4ccc5oc6ccccc6c5c4)cs3)c(OCCN3CCNC3=O)c2)nn1.O=C(O)C(F)(F)F [12s]
mechanism of LiTryR inhibition (LiTryR): slow-binding inhibitors

NCCCCc1cn(-c2ccc(-c3nc(-c4ccccc4)c(-c4ccccc4)s3)c(OCCN3CCNC3=O)c2)nn1.O=C(O)C(F)(F)F [19a, 1-(2-(5-(4-(4-Ammoniobutyl)-1H-1,2,3-triazol-1-yl)-2-(4,5-diphenylthiazol-2-yl)phenoxy)ethyl)imidazolidin-2-one 2,2,2-Trifluoroacetate]
β, noncompetitive hyperbolic inhibition mechanism (LiTryR; DTNB-coupled assay, initial velocities, alpha value of 1): 0.5 ± 0.1 | Ki (LiTryR; DTNB-coupled assay, initial velocities, alpha value of 1, read-out: Ki, noncompetitive hyperbolic inhibition mechanism): 12.7 ± 3.5 µM | Ki (LiTryR; [TS2] 3.1 μM, read-out: Ki*^app): 0.6 ± 0.1 µM | Ki (LiTryR; [TS2] 3.1 μM, read-out: Ki^app): 8.9 ± 3.1 µM | Ki (LiTryR; [TS2] 6.2 μM, read-out: Ki*^app): 0.5 ± 0.1 µM | Ki (LiTryR; [TS2] 6.2 μM, read-out: Ki^app): 7.2 ± 1.7 µM | Ki (LiTryR; [TS2] 12.5 μM, read-out: Ki*^app): 0.5 ± 0.2 µM | Ki (LiTryR; [TS2] 12.5 μM, read-out: Ki^app): 5.2 ± 2.6 µM | Ki (LiTryR; [TS2] 25 μM, read-out: Ki*^app): 0.8 ± 0.2 µM | Ki (LiTryR; [TS2] 25 μM, read-out: Ki^app): 8.3 ± 3 µM | Ki (LiTryR; [TS2] 50 μM, read-out: Ki*^app): 1.4 ± 0.3 µM | Ki (LiTryR; [TS2] 50 μM, read-out: Ki^app): 9.3 ± 3.2 µM | Ki (LiTryR; [TS2] 100 μM, read-out: Ki*^app): 1.3 ± 0.6 µM | Ki (LiTryR; [TS2] 100 μM, read-out: Ki^app): 5 ± 2.7 µM | Ki (LiTryR; [4]): 0.5 ± 0.1 µM | α* (overall two-step process) (LiTryR): 5.5 ± 2.9 | k6, value selected as conservative upper value (LiTryR; fixed for fitting to eq 2): ≤ 3 × 10^–5 s^–1 | mechanism of LiTryR inhibition (LiTryR): slow-binding inhibitors; also recorded: nonlinear noncompetitive hyperbolic inhibition mechanism | Ki (LiTryR; [5]): 7.8 ± 1.7 µM | α (initial EI complex) (LiTryR; two-step mechanism): 0.8 ± 0.4 | SIp (ratio of EC50 against human cells to EC50 against promastigotes) [2]: 2.5 | EC50 [2, 6]: 10.7 ± 1.3 µM

NCCCCc1cn(-c2ccc(-c3nc(-c4ccc(Oc5ccccc5)cc4)c(-c4ccccc4)s3)c(OCCN3CCNC3=O)c2)nn1.O=C(O)C(F)(F)F [19c, 1-(2-(5-(4-(4-Ammoniobutyl)-1H-1,2,3-triazol-1-yl)-2-(4-([4-phenyloxyphenyl]-1-yl)-5-phenylthiazol-2-yl)phenoxy)ethyl)imidazolidin-2-one 2,2,2-Trifluoroacetate]
EC50 [1, 3]: > 75 µM

NCCNCc1nccn1-c1ccc(-c2nc(CCc3ccc4ccccc4c3)cs2)c(OCCN2CCNC2=O)c1 [compound 2, reference compound]
EC50 [1, 8]: > 75 µM | SIp (ratio of EC50 against human cells to EC50 against promastigotes) [2]: 2.1/2.1 | EC50 [2, 6]: 12.8 ± 0.7 µM

NCCNCc1nccn1-c1ccc(-c2nc(CCc3ccc(-c4ccccc4)cc3)cs2)c(OCCN2CCNC2=O)c1 [compound 3, reference compound]
EC50 [1, 8]: > 75 µM | SIp (ratio of EC50 against human cells to EC50 against promastigotes) [2]: 2.7 and 2.7/2.7 | EC50 [2, 6]: 5.3 ± 0.3 µM

NCCCCc1cn(-c2ccc(-c3nc(-c4cccc(-c5csc(-c6ccc(-n7cc(CCCCN)nn7)cc6OCCN6CCNC6=O)n5)c4)cs3)c(OCCN3CCNC3=O)c2)nn1.O=C(O)C(F)(F)F.O=C(O)C(F)(F)F [compound 22, 1,1′-((((1,3-Phenylenebis(thiazole-4,2-diyl))bis(5-(4-(4-ammoniobutyl)-1H-1,2,3-triazol-1-yl)-2,1-phenylene))bis(oxy))bis(ethane-2,1-diyl))bis(imidazolidin-2-one)bis(2,2,2-trifluoroacetate)]
EC50 [1, 3]: 22 µM | SI (intracellular amastigotes) ([1]; THP-1 / intracellular amastigotes): 2.2 | EC50 ([1]; read-out: EC50 intracellular amastigotes, amastigote-infected THP-1 macrophages, 72 h): 22.2 ± 6.4 µM | SIp (ratio of EC50 against human cells to EC50 against promastigotes) [2]: 8.0 | EC50 [2, 6]: 3.8 ± 0.1 µM
